Measured values as given in patent publication US9617256B2 (priority 2007, dated 2017).
≈ marks a conversion by molar mass, not a printed value. Like-named read-outs stand apart in the source and are kept apart here.

How the values were obtained:
AECO001 (ATCC25922) = test: MIC broth microdilution, AECO001; type: cell-based, E. coli; details: for MIC: Escherichia coli; for Ratio of MICs on AECO001 [Cpd (A = —CHCH3NH2)/Cpd (A = —C(CH3)2NH2)]: MIC of paired compound with A = —CHCH3NH2 divided by MIC of compound with A = —C(CH3)2NH2, n=2 data, pairs identical except for the A moiety
How it was run: (§1)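 MICs come from broth microdilution in cation-adjusted Mueller-Hinton broth, final inoculum 3×10^5–7×10^5 CFU/mL, 18-24 hours at 35° C. Levofloxacin and QC strains served as assay controls.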

[1] = test system: AECO063 (ATCC25922 bearing an acrAB mutation); test: microbe, parasite or virus in culture; type: cell-based, E. coli; details: Escherichia coli, ATCC25922, read-out: MIC AECO063
How it was run: as §1

APAE001 (ATCC27853) = test: MIC broth microdilution, APAE001; type: cell-based, P. aeruginosa; details: Pseudomonas aeruginosa, ATCC27853, read-out: MIC APAE001, APAE001 (ATCC27853)
How it was run: as §1

[2] = test system: APAE006 (strain of P. aeruginosa in which all efflux pumps are inactivated); test: microbe, parasite or virus in culture; type: cell-based; details: Pseudomonas aeruginosa, read-out: MIC APAE006, APAE006, all efflux pumps inactivated
How it was run: (§2)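 Incubation: 35° C., ambient air, 18-24 h. Medium: cation-adjusted Mueller-Hinton broth with 2-fold serial dilutions of drug. Inoculum: 3×10^5–7×10^5 CFU/mL final, per CLSI microdilution method.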

[3] = test system: APAE006 in the presence of 8 micrograms per milliliter of polymyxin B nonapeptide; type: cell-based, P. aeruginosa; details: APAE006 with 8 micrograms per milliliter polymyxin B nonapeptide
How it was run: as §2

[4] = test system: AABA1060 (clinical isolate of Acinetobacter baumannii); test: MIC broth microdilution, AABA1060; type: cell-based; details: Acinetobacter baumannii, read-out: MIC AABA1060
How it was run: as §1

[5] = test system: ASAU001 (laboratory strain of S. aureus, ATCC29213); test: MIC broth microdilution, ASAU001; type: cell-based; details: Staphylococcus aureus, ATCC29213, read-out: MIC ASAU001
How it was run: as §1

[6] = ATCC25922, read-out: MIC AECO001
[7] = ATCC25922, read-out: MIC AECO001 HSA AGP

SMILES	MIC (AECO001 (ATCC25922); [6]) [µg/mL]	MIC (AECO001 (ATCC25922); [7]) [µg/mL]	MIC [1] [µg/mL]	MIC (APAE001 (ATCC27853)) [µg/mL]	MIC [2] [µg/mL]	MIC APAE006 + PMBN [3]	MIC [4] [µg/mL]	MIC [5] [µg/mL]	Ratio of MICs on AECO001 [Cpd (A = —CHCH3NH2)/Cpd (A = —C(CH3)2NH2)] (AECO001 (ATCC25922))
C[C@@H](N)[C@H](NC(=O)c1ccc(C#CC#Cc2cnn(C)c2)cc1)C(=O)NO [Example 89-1, N-((2S,3R)-3-amino-1-(hydroxyamino)-1-oxobutan-2-yl)-4-((1-methyl-1H-pyrazol-4-yl)buta-1,3-diynyl)benzamide]	< 2	2 to 16 (≈ 5.47 to 43.8 µM)	< 2	< 2	< 2	A (MIC's of 2.0 μg/mL or less = A)	2 to 16 (≈ 5.47 to 43.8 µM)	16 to 64 (≈ 43.8 to 175 µM)	
CC(C)OCc1ccc(C#Cc2ccc(C(=O)N[C@H](C(=O)NO)[C@@H](C)N)cc2)cc1 [Example 124-2]	< 2	2 to 16 (≈ 4.88 to 39.1 µM)	< 2	2 to 16 (≈ 4.88 to 39.1 µM)	< 2	A (MIC's of 2.0 μg/mL or less = A)	2 to 16 (≈ 4.88 to 39.1 µM)	16 to 64 (≈ 39.1 to 156 µM)	
CC(C)(N)[C@H](NC(=O)c1ccc(C#Cc2ccc(CNCC(F)F)cc2)cc1)C(=O)NO [Example 122-3]	< 2	< 2	< 2	< 2	< 2	A (MIC's of 2.0 μg/mL or less = A)	< 2	16 to 64 (≈ 36 to 144 µM)	
CC(C)(N)[C@H](NC(=O)c1ccc(C#C/C=C/c2ccccc2)cc1)C(=O)NO [Example 104-5]	< 2	< 2	< 2	2 to 16 (≈ 5.3 to 42.4 µM)	< 2	A (MIC's of 2.0 μg/mL or less = A)	< 2	2 to 16 (≈ 5.3 to 42.4 µM)	
C[C@@H](O)[C@H](NC(=O)c1ccc(C#Cc2ccncc2)cc1)C(=O)NO [Example 133-13]	16 to 64 (≈ 47.1 to 189 µM)	16 to 64 (≈ 47.1 to 189 µM)	2 to 16 (≈ 5.89 to 47.1 µM)	16 to 64 (≈ 47.1 to 189 µM)	< 2	A (MIC's of 2.0 μg/mL or less = A)	16 to 64 (≈ 47.1 to 189 µM)	16 to 64 (≈ 47.1 to 189 µM)	
CC(C)(O)[C@H](NC(=O)c1ccc(C#Cc2ccccc2)cc1)C(=O)NO [Example 133-14]	< 2	< 2	< 2	2 to 16 (≈ 5.68 to 45.4 µM)	< 2	A (MIC's of 2.0 μg/mL or less = A)	< 2	16 to 64 (≈ 45.4 to 182 µM)	
C[C@@H](O)[C@H](NC(=O)c1ccc(/C=C/C#Cc2cccnc2)cc1)C(=O)NO [Example 114-13]	< 2	2 to 16 (≈ 5.47 to 43.8 µM)	< 2	2 to 16 (≈ 5.47 to 43.8 µM)	< 2	A (MIC's of 2.0 μg/mL or less = A)	2 to 16 (≈ 5.47 to 43.8 µM)	16 to 64 (≈ 43.8 to 175 µM)	
CCCC#CC#Cc1ccc(C(=O)N[C@H](C(=O)NO)C(C)(C)N)cc1 [Example 91-9]	< 2	< 2	< 2	< 2	< 2	A (MIC's of 2.0 μg/mL or less = A)	< 2	2 to 16 (≈ 5.86 to 46.9 µM)	5.2
CC(C)(N)[C@H](NC(=O)c1ccc(C#CC#Cc2cccnc2)cc1)C(=O)NO [Example 88-8]	< 2	< 2	< 2	< 2	< 2	A (MIC's of 2.0 μg/mL or less = A)	2 to 16 (≈ 5.31 to 42.5 µM)	16 to 64 (≈ 42.5 to 170 µM)	5.1
CC(C)(O)[C@H](NC(=O)c1ccc(C#Cc2ccc(CN3CCCOCC3)cc2)cc1)C(=O)NO [Example 122-8]	< 2	< 2	< 2	< 2	< 2	A (MIC's of 2.0 μg/mL or less = A)	2 to 16 (≈ 4.3 to 34.4 µM)	16 to 64 (≈ 34.4 to 137 µM)	
Cn1cc(C#CC#Cc2ccc(C(=O)N[C@H](C(=O)NO)C(C)(C)O)cc2)cn1 [Example 89-3]	< 2	< 2	< 2	< 2	< 2	A (MIC's of 2.0 μg/mL or less = A)	2 to 16 (≈ 5.26 to 42.1 µM)	16 to 64 (≈ 42.1 to 168 µM)	
CC(C)(N)[C@H](NC(=O)c1ccc(/C=C/C#CC2CCCC2)cc1)C(=O)NO [Example 114-20]	< 2	2 to 16 (≈ 5.41 to 43.3 µM)	< 2	2 to 16 (≈ 5.41 to 43.3 µM)	< 2	A (MIC's of 2.0 μg/mL or less = A)	< 2	2 to 16 (≈ 5.41 to 43.3 µM)	
CC(C)CCC#CC#Cc1ccc(C(=O)N[C@H](C(=O)NO)C(C)(C)N)cc1 [Example 91-21]	< 2	2 to 16 (≈ 5.41 to 43.3 µM)	< 2	2 to 16 (≈ 5.41 to 43.3 µM)	< 2	A (MIC's of 2.0 μg/mL or less = A)	2 to 16 (≈ 5.41 to 43.3 µM)	2 to 16 (≈ 5.41 to 43.3 µM)	
C[C@@H](O)[C@H](NC(=O)c1ccc(/C=C/C#Cc2ccccc2F)cc1)C(=O)NO [Example 114-12]	< 2	2 to 16 (≈ 5.23 to 41.8 µM)	< 2	2 to 16 (≈ 5.23 to 41.8 µM)	< 2	A (MIC's of 2.0 μg/mL or less = A)	< 2	16 to 64 (≈ 41.8 to 167 µM)	
C[C@@H](N)[C@H](NC(=O)c1ccc(C#Cc2ccc(COC3CC3)cc2)cc1)C(=O)NO [Example 123-1, N-((1S,2R)-2-Amino-1-hydroxycarbamoyl-propyl)-4-(4-cyclopropoxymethyl-phenylethynyl)-benzamide]	< 2	2 to 16 (≈ 4.91 to 39.3 µM)	< 2	2 to 16 (≈ 4.91 to 39.3 µM)	< 2	A (MIC's of 2.0 μg/mL or less = A)	2 to 16 (≈ 4.91 to 39.3 µM)	16 to 64 (≈ 39.3 to 157 µM)	
CC(C)(O)[C@H](NC(=O)c1ccc(C#C/C=C/c2ccc(F)cc2)cc1)C(=O)NO [Example 106-7]	< 2	2 to 16 (≈ 5.05 to 40.4 µM)	< 2	2 to 16 (≈ 5.05 to 40.4 µM)	< 2	A (MIC's of 2.0 μg/mL or less = A)	2 to 16 (≈ 5.05 to 40.4 µM)	16 to 64 (≈ 40.4 to 161 µM)	
CC(C)(O)[C@H](NC(=O)c1ccc(C#CC#CCC2CCCC2)cc1)C(=O)NO [Example 91-20]	< 2	2 to 16 (≈ 5.23 to 41.8 µM)	< 2	2 to 16 (≈ 5.23 to 41.8 µM)	2 to 16 (≈ 5.23 to 41.8 µM)	A (MIC's of 2.0 μg/mL or less = A)	2 to 16 (≈ 5.23 to 41.8 µM)	16 to 64 (≈ 41.8 to 167 µM)	
C[C@H](C#CC#Cc1ccc(C(=O)N[C@H](C(=O)NO)[C@@H](C)N)cc1)N1CCOCC1 [Example 92-1, N-((2S,3R)-3-amino-1-(hydroxyamino)-1-oxobutan-2-yl)-4-((R)-5-morpholinohexa-1,3-diynyl)benzamide]	2 to 16 (≈ 5.02 to 40.2 µM)	16 to 64 (≈ 40.2 to 161 µM)	2 to 16 (≈ 5.02 to 40.2 µM)	2 to 16 (≈ 5.02 to 40.2 µM)	< 2	A (MIC's of 2.0 μg/mL or less = A)	16 to 64 (≈ 40.2 to 161 µM)	16 to 64 (≈ 40.2 to 161 µM)	
C[C@@H](N)[C@H](NC(=O)c1ccc(C#CC#Cc2cncnc2)cc1)C(=O)NO [Example 89-4]	16 to 64 (≈ 44 to 176 µM)	16 to 64 (≈ 44 to 176 µM)	2 to 16 (≈ 5.5 to 44 µM)	2 to 16 (≈ 5.5 to 44 µM)	< 2	A (MIC's of 2.0 μg/mL or less = A)	16 to 64 (≈ 44 to 176 µM)	16 to 64 (≈ 44 to 176 µM)	
CCCC#CC#Cc1ccc(C(=O)N[C@H](C(=O)NO)[C@@H](C)N)cc1 [Example 91-8]	< 2	2 to 16 (≈ 6.11 to 48.9 µM)	< 2	< 2	< 2	A (MIC's of 2.0 μg/mL or less = A)	2 to 16 (≈ 6.11 to 48.9 µM)	2 to 16 (≈ 6.11 to 48.9 µM)	
